Results as given in patent publication US20180296542A1, “IMINOSUGARS FOR IMPROVING BONE MINERAL DENSITY IN BONE DISEASE” (Saint Louis University, priority 2015, published 2018).
Where “and” joins values, the source holds several entries; their conditions need not be identical. Equal entries are not always repeated. Entries after “also recorded” stand apart in the source; their conditions may differ.

Experiments:
[1] = test system: TNSALP-null (Akp2^−/−) mice, in vivo model of infantile HPP (wild-type, heterozygous, homozygous); experiment: MicroCT bone mineral density of femur cortical bone after one month of Miglustat (Example 1); conditions: for Mean/Density [mg HA/ccm] of TV (Apparent) (BMD), individual mice: femur diaphysis cortical bone, one value per mouse
Procedure: -null (Akp2^-/-) mice served as an in vivo model of infantile HPP to analyze the effects of Miglustat as a treatment for HPP through BMD measurements. […] Resembling patients with HPP, elevated substrate concentrations of PEA, PPi, and PLP were found in urine samples from knock-out mice. […] All experiments were conducted with the highest standards of humane animal care at Saint Louis University under an approved IACUC protocol. Mice were genotyped as wild-type, heterozygous, or homozygous through DNA extraction, polymerase chain reaction (PCR), and gel electrophoresis. After DNA was extracted from an ear tissue sample, PCR was used to generate copies of the DNA for gel electrophoresis (2% agarose and Tris-Acetate-EDTA (TAE) buffer). The following primers were used: [NT] ID NO:1), [NT] ID NO:2), [NT] ID NO:3, wild-type allele: 160 bp, mutant allele: 195 bp). At the age of one month, mice were administered 100 μL injections of phosphate-buffered saline (PBS) with 0 mg/kg, 400 mg/kg, or 1200 mg/kg of Miglustat (250 mg/mL) to the peritoneal cavity for gradual diffusion of the drug. Mice were massed each day to adjust Miglustat dosages to body weight. Intraperitoneal injections (IP) continued daily for one month before mice were euthanized with CO2 at the age of two months. Mice were on a Pyridoxine Supplement Diet (“Vitamin B6 Diet”) to prevent seizures. […] (Systems EngineeringTM) was provided every alternating day to prevent dehydration. Urine samples were collected once a week and blood samples were collected from cheek tissue at the beginning and end of treatment. Full-body ventral and side-view x-rays were taken after euthanizing the mice. The left anatomical legs were dissected to obtain the femoral bones. Femurs were then frozen before being placed in 10% formalin the day prior to microCT scanning. Four bones were inserted into a gel cast (2.5% agarose and TAE buffer) at a time and covered with 2.5% agarose and TAE buffer to create gel capsules that were placed in sample tubes (diameter: 11.5 mm, height: 75 mm) for microCT scanning Cortical bone scans (voxel size: 12 μm) were performed at the diaphysis (femoral shaft) using a SCANCO μCT 35 system (SCANCO Medical; Brü[…], Switzerland). MicroCT scans were analyzed using SCANCO Medical microCT software to produce three dimensional reconstructions of the bones and determine bone mineral density (BMD) as the mean/density [mg HA/ccm] of total volume (TV) (Apparent). The total length of each bone was measured as the distance from the greater trochanter to the distal end. Only the middle 20% of each femur was accounted for during cortical bone analysis. Statistical analysis included calculating the average mean/density [mg HA/ccm] of TV (Apparent) and standard error for each treatment group to determine the estimated standard deviation of the statistics. Standard deviation and standard error were not calculated for homozygous mice due to count values below three. Full-body ventral and side x-rays were taken and microCT scans were performed on the femurs of each mouse. The bone mineral densities of the femurs were recorded in units of hydroxyapatite density as the mean/density [mg HA/ccm] of TV (apparent). The average bone mineral densities (average mean/density [mg HA/ccm] of TV (apparent) were then calculated for each treatment group. Statistical analysis, including standard deviation and standard error, was only performed for the wild-types and heterozygotes due to insufficient data for the homozygous mice. A minimum of three mice were required for statistical analysis.

[2] = test system: TNSALP-null (Akp2^−/−) mice, in vivo model of bone disease (WT, Het, KO); experiment: MicroCT of femur trabecular bone (Example 2)
Procedure: TNSALP-null (Akp2^−/−) mice served as an in vivo model of bone disease to analyze the effects of the iminosugar, Miglustat.
(§1) Mice were obtained, bred and genotyped as described above. Five mice of each genotype (Wild-type (WT), heterozygous (Het), and homozygous (KO)) were included in each treatment group (i.p. administration of PBS, 400 mg/kg Miglustat, and 1200 mg/kg Miglustat as described above). A total of 44 mice were analyzed (1 Akp2^−/− homozygous mouse was omitted in the PBS group). Mice were scanned using microCT and analyzed as described above. Cortical bone in the middle 20% of bone length from trochanter to distal condyles in the femur was scanned and cortical thickness and bone mineral density were obtained. Cortical thickness (Ct.Th, μm) was used as an indication of average thickness of cortical bone. Trabecular bone of the final 625 μm before the femoral growth plate was scanned.
Bone volume fraction is the ratio of the segmented bone volume to the total volume of the region of interest.
Trabecular thickness was measured as illustrated in FIG. 23. […] Trabecular separation is the mean distance between trabeculae assessed using direct 3D methods as illustrated in FIG. 25.
As depicted in FIG. 26, the trabecular number changed with Miglustat in both heterozygotes and homozygotes treated with Miglustat. As depicted in FIG. 27, structure model index (SMI) increased in homozygous AKP mice treated with Miglustat. […] SMI represents an indicator of the structure of the trabeculae. SMI will be zero for parallel plates and 3 for cylindrical rods.
Connectivity density is a measure of the degree of connectivity of trabeculae normalized by total volume.

[3] = test system: TNSALP-null (Akp2^−/−) mice (WT, Het, KO); experiment: Growth (percent change in weight) and toxicity in treated mice (Example 2); format: in vivo
Procedure: At the age of one month, mice were administered 100 μL injections of phosphate-buffered saline (PBS) with 0 mg/kg, 400 mg/kg, or 1200 mg/kg of Miglustat (250 mg/mL) to the peritoneal cavity for gradual diffusion of the drug. Mice were massed each day to adjust Miglustat dosages to body weight. Intraperitoneal injections (IP) continued daily for one month before mice were euthanized with CO2 at the age of two months. Mice were on a Pyridoxine Supplement Diet (“Vitamin B6 Diet”) to prevent seizures. NAPA NECTAR™ (Systems Engineering™) was provided every alternating day to prevent dehydration. Urine samples were collected once a week and blood samples were collected from cheek tissue at the beginning and end of treatment.
as §1, with “Cortical thickness (Ct.Th, μm) was used as an indication of average thickness of cortical bone. Trabecular bone of the final 625 μm before the femoral growth plate was scanned.” left out

[4] = homozygous mice, Miglustat 400 mg/kg

CCCCN1C[C@H](O)[C@@H](O)[C@H](O)[C@H]1CO [Miglustat, (2R,3R,4R,5S)-1-butyl-2-(hydroxymethyl)piperidine-3,4,5-triol]
Average BMD with Miglustat dosage versus PBS groups (in words) ([1]; across genotypes, except wild-type mice at 1200 mg/kg, one month of treatment, 1200 mg/kg): higher average BMDs; also recorded: BMD increased with Miglustat dosage; also recorded: higher average BMD values | Average BMD versus PBS heterozygotes (in words) ([1]; heterozygous mice, Miglustat 400 mg/kg): slight improvement; also recorded: higher average BMD value | Mean/Density [mg HA/ccm] of TV (Apparent) (BMD), individual mice ([1]; heterozygous mice, Miglustat 400 mg/kg IP daily for one month): 983.17 mg HA/ccm and 937.07 mg HA/ccm and 968.62 mg HA/ccm | Average Mean/Density [mg HA/ccm] of TV (Apparent) (average BMD) ([1]; heterozygous mice, Miglustat 400 mg/kg, n=3, ± standard error): 962.95±13.61 mg HA/ccm and 962.95 mg HA/ccm | Average BMD versus PBS heterozygotes and PBS wild-types (in words) ([1]; heterozygous mice, Miglustat 1200 mg/kg): even greater improvement; also recorded: match or even surpass; also recorded: matched and surpassed | Mean/Density [mg HA/ccm] of TV (Apparent) (BMD), individual mice ([1]; heterozygous mice, Miglustat 1200 mg/kg IP daily for one month): 980.88 mg HA/ccm and 984.82 mg HA/ccm and 979.78 mg HA/ccm and 1006.65 mg HA/ccm | Average Mean/Density [mg HA/ccm] of TV (Apparent) (average BMD) ([1]; heterozygous mice, Miglustat 1200 mg/kg, n=4, ± standard error): 988.03±6.30 mg HA/ccm and 988.03 mg HA/ccm | Differences in mineralization in microCT scans between treatments ([1]; heterozygous mice, PBS vs 400 vs 1200 mg/kg Miglustat): not discernable | Mean/Density [mg HA/ccm] of TV (Apparent) (BMD), individual mice ([1]; homozygous (Akp2^−/−) mice, Miglustat 400 mg/kg IP daily for one month): 881.08 mg HA/ccm and 1054.98 mg HA/ccm | Average Mean/Density [mg HA/ccm] of TV (Apparent) (average BMD) ([1]; homozygous (Akp2^−/−) mice, Miglustat 400 mg/kg, n=2): 968.03 mg HA/ccm | Average BMD versus knockouts on PBS (in words) [1, 4]: substantial difference; also recorded: higher average BMD | Cortical bone mineralization at the diaphysis in microCT scans [1, 4]: improper cortical bone mineralization | Average BMD versus other treatment groups (in words) ([1]; wild-type mice, Miglustat 400 mg/kg): greater; also recorded: increased; also recorded: highest average BMD | Mean/Density [mg HA/ccm] of TV (Apparent) (BMD), individual mice ([1]; wild-type mice, Miglustat 400 mg/kg IP daily for one month): 1000.00 mg HA/ccm and 990.58 mg HA/ccm and 991.31 mg HA/ccm and 1004.30 mg HA/ccm and 995.88 mg HA/ccm | Average Mean/Density [mg HA/ccm] of TV (Apparent) (average BMD) ([1]; wild-type mice, Miglustat 400 mg/kg, n=5, ± standard error): 996.41±2.60 mg HA/ccm and 996.41 mg HA/ccm | Average BMD versus PBS wild-type group (in words) ([1]; wild-type mice, Miglustat 1200 mg/kg): no change | Mean/Density [mg HA/ccm] of TV (Apparent) (BMD), individual mice ([1]; wild-type mice, Miglustat 1200 mg/kg IP daily for one month): 973.20 mg HA/ccm and 985.09 mg HA/ccm and 969.63 mg HA/ccm and 967.00 mg HA/ccm | Average Mean/Density [mg HA/ccm] of TV (Apparent) (average BMD) ([1]; wild-type mice, Miglustat 1200 mg/kg, n=4, ± standard error): 974.48±3.63 mg HA/ccm and 974.48 mg HA/ccm | Trabecular separation (Tb.Sp), femur ([2]; FIG. 24): decrease | Appearance of trabeculae (microCT images) ([2]; Homozygotes (KO), 400 and 1200 mg/kg, FIGS. 20A-20D): restore the appearance of narrow trabeculae | Overall bone volume (bone volume fraction), femur ([2]; after treatment, FIG. 21): not significantly increased | Trabecular number (Tb.N), femur ([2]; heterozygotes and homozygotes, FIG. 26): changed | Connectivity density (Conn. D), femur ([2]; heterozygotes or homozygotes, FIG. 28): did not change | Trabecular thickness (Tb.Th), femur ([2]; homozygotes, FIG. 22): lower | Structure model index (SMI), femur ([2]; homozygous AKP mice, FIG. 27): increased | Toxicity ([3]; 400 mg/kg/day and 1,200 mg/kg/day delivered intraperitoneally): no toxicity was observed | Growth as measured by percent change in weight ([3]; high doses of Miglustat, particularly notable in WT and Het mice, FIG. 12): impeded growth
